Measurements as given in patent publication US20070270418A1, “Inhibitors of P38 and Methods of Using the Same” (priority 2003, published 2007).

test system: TNFα release from THP-1 cells; experiment: TNFα release from LPS-stimulated THP-1 cells; format: cell-based; details: Homo sapiens, THP-1, 18 h, LPS 10 μg/ml, 18 hours; read-out: TNFα (THP-1) IC50
Procedure, shortened: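 THP-1 cells (10^6 cells/ml on resuspension) preincubated with compound 30 min at 37°C, 5% CO2, final DMSO ≤0.5%, then stimulated with 10 μg/ml LPS for 18 h (TNFα). Supernatants collected for TNFα analysis.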

Row | SMILES | IC50 [nM]
1 | CN(C)CC(C)(C)CNc1nccc(-c2c(-c3ccc(F)cc3)nc3occn23)n1 [CXIX] | 33.1
2 | Fc1ccc(-c2nc3occn3c2-c2ccnc(N[C@@H]3CN4CCC3CC4)n2)cc1 [LXXI] | 19.1

biological target: T1, CDK2/cyclinA (Homo sapiens, UniProt P24941); experiment: Broad selectivity panel, 32P incorporation; format: biochemical; details: 0.1 μM compound, 40 μM ATP; read-out: Percent inhibition CDK2/cyclinA
T1 construct: purchased Upstate (Charlottesville, Va.)
Experimental: (§1) Various compounds of the present invention are screened against a panel of 24 additional kinases (Upstate, Charlottesville, Va.). Compounds are tested 0.1 μM and 1 μM in reactions containing 40 μM ATP. Incorporation of radiolabeled phosphate (^32P) into each kinase substrate is measured in the presence and absence of test compound. Results are reported as the percent decrease in the amount of ^32P incorporated into the substrate in the presence of compound, compared to buffer control.

Row | SMILES | inhibition at 0.1 µM [%]
3 | CN(C)CC(C)(C)CNc1nccc(-c2c(-c3ccc(F)cc3)nc3occn23)n1 [CXIX] | -1
4 | Fc1ccc(-c2nc3occn3c2-c2ccnc(N[C@@H]3CN4CCC3CC4)n2)cc1 [LXXI] | 0

same assay, conditions: 1 μM compound, 40 μM ATP; read-out: Percent inhibition CDK2/cyclinA

Row | SMILES | inhibition at 1 µM [%]
5 | CN(C)CC(C)(C)CNc1nccc(-c2c(-c3ccc(F)cc3)nc3occn23)n1 [CXIX] | -1
6 | Fc1ccc(-c2nc3occn3c2-c2ccnc(N[C@@H]3CN4CCC3CC4)n2)cc1 [LXXI] | 8

biological target: T2, CK2 (Homo sapiens, UniProt P68400); experiment: Broad selectivity panel, 32P incorporation; format: biochemical; details: 0.1 μM compound, 40 μM ATP; read-out: Percent inhibition CK2
T2 construct: purchased Upstate (Charlottesville, Va.)
Experimental: as §1

T2 sequence (P68400 whole entry): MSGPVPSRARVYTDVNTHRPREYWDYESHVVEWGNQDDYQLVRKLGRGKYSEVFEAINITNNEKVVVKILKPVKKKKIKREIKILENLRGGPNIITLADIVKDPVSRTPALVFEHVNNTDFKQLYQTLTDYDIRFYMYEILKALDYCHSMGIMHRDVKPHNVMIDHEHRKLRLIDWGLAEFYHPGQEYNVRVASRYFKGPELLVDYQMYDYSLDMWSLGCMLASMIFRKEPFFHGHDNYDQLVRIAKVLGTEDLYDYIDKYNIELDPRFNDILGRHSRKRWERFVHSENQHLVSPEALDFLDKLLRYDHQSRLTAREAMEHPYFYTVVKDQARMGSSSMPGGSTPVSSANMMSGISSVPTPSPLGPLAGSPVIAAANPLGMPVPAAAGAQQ
T2 sequence (P67870 whole entry partner): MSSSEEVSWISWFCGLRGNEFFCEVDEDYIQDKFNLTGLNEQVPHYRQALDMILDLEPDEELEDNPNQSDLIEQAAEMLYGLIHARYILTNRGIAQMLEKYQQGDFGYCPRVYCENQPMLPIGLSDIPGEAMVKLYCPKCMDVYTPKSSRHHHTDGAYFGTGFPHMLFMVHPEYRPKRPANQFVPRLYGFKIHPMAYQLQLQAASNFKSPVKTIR

Row | SMILES | inhibition at 0.1 µM [%]
7 | CN(C)CC(C)(C)CNc1nccc(-c2c(-c3ccc(F)cc3)nc3occn23)n1 [CXIX] | 9
8 | Fc1ccc(-c2nc3occn3c2-c2ccnc(N[C@@H]3CN4CCC3CC4)n2)cc1 [LXXI] | 3

same assay, conditions: 1 μM compound, 40 μM ATP; read-out: Percent inhibition CK2

Row | SMILES | inhibition at 1 µM [%]
9 | CN(C)CC(C)(C)CNc1nccc(-c2c(-c3ccc(F)cc3)nc3occn23)n1 [CXIX] | 3
10 | Fc1ccc(-c2nc3occn3c2-c2ccnc(N[C@@H]3CN4CCC3CC4)n2)cc1 [LXXI] | 12

biological target: T3, GSK3β (Homo sapiens, UniProt P49841); experiment: Broad selectivity panel, 32P incorporation; format: biochemical; details: 0.1 μM compound, 40 μM ATP; read-out: Percent inhibition GSK3β
T3 construct: purchased Upstate (Charlottesville, Va.)
Experimental: as §1

T3 sequence (P49841 whole entry, species assumed): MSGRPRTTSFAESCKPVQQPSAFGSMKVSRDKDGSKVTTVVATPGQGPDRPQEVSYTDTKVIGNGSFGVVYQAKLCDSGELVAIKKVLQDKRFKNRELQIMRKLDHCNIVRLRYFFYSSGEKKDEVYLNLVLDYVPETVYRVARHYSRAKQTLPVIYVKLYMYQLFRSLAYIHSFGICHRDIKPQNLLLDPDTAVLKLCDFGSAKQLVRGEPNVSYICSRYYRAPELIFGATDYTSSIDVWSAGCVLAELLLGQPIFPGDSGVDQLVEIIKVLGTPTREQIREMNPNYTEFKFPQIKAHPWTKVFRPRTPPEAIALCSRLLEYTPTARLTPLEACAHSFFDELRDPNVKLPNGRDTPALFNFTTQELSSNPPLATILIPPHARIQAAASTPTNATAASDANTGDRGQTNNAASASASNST

Row | SMILES | inhibition at 0.1 µM [%]
11 | CN(C)CC(C)(C)CNc1nccc(-c2c(-c3ccc(F)cc3)nc3occn23)n1 [CXIX] | 11
12 | Fc1ccc(-c2nc3occn3c2-c2ccnc(N[C@@H]3CN4CCC3CC4)n2)cc1 [LXXI] | -8

same assay, conditions: 1 μM compound, 40 μM ATP; read-out: Percent inhibition GSK3β

Row | SMILES | inhibition at 1 µM [%]
13 | CN(C)CC(C)(C)CNc1nccc(-c2c(-c3ccc(F)cc3)nc3occn23)n1 [CXIX] | 13
14 | Fc1ccc(-c2nc3occn3c2-c2ccnc(N[C@@H]3CN4CCC3CC4)n2)cc1 [LXXI] | 10

biological target: T4, JNK1α1 (Homo sapiens, UniProt P45983); experiment: Broad selectivity panel, 32P incorporation; format: biochemical; details: 0.1 μM compound, 40 μM ATP; read-out: Percent inhibition JNK1α1
T4 construct: purchased Upstate (Charlottesville, Va.)
Experimental: as §1

T4 sequence (P45983 1-384 isoform P45983-2, species assumed): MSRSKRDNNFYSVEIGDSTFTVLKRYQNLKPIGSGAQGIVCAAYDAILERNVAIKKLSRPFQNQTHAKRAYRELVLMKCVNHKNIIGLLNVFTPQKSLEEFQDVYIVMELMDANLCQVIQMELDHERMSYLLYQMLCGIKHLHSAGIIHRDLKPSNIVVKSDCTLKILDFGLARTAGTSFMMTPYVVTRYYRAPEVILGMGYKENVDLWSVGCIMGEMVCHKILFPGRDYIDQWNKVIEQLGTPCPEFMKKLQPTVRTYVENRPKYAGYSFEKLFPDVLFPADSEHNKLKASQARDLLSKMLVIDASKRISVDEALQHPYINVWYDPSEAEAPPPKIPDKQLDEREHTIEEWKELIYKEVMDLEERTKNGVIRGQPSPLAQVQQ

Row | SMILES | inhibition at 0.1 µM [%]
15 | CN(C)CC(C)(C)CNc1nccc(-c2c(-c3ccc(F)cc3)nc3occn23)n1 [CXIX] | -1
16 | Fc1ccc(-c2nc3occn3c2-c2ccnc(N[C@@H]3CN4CCC3CC4)n2)cc1 [LXXI] | -20

same assay, conditions: 1 μM compound, 40 μM ATP; read-out: Percent inhibition JNK1α1

Row | SMILES | inhibition at 1 µM [%]
17 | CN(C)CC(C)(C)CNc1nccc(-c2c(-c3ccc(F)cc3)nc3occn23)n1 [CXIX] | -18
18 | Fc1ccc(-c2nc3occn3c2-c2ccnc(N[C@@H]3CN4CCC3CC4)n2)cc1 [LXXI] | 3

biological target: T5, MAPK2 (Homo sapiens, UniProt P28482); experiment: Broad selectivity panel, 32P incorporation; format: biochemical; details: 0.1 μM compound, 40 μM ATP; read-out: Percent inhibition MAPK2
T5 construct: purchased Upstate (Charlottesville, Va.)
Experimental: as §1

T5 sequence (P28482 whole entry): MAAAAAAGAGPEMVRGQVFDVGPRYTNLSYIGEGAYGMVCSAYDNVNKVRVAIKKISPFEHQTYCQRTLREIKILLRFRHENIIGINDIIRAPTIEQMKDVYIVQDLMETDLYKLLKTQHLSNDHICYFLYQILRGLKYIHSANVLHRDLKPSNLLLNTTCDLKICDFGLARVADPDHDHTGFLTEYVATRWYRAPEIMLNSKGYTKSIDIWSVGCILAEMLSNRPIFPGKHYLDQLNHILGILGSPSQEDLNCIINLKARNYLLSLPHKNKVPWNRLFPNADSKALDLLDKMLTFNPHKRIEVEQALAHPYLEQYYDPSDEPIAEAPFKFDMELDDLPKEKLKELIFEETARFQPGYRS

Row | SMILES | inhibition at 0.1 µM [%]
19 | CN(C)CC(C)(C)CNc1nccc(-c2c(-c3ccc(F)cc3)nc3occn23)n1 [CXIX] | 10
20 | Fc1ccc(-c2nc3occn3c2-c2ccnc(N[C@@H]3CN4CCC3CC4)n2)cc1 [LXXI] | -5

same assay, conditions: 1 μM compound, 40 μM ATP; read-out: Percent inhibition MAPK2

Row | SMILES | inhibition at 1 µM [%]
21 | CN(C)CC(C)(C)CNc1nccc(-c2c(-c3ccc(F)cc3)nc3occn23)n1 [CXIX] | 7
22 | Fc1ccc(-c2nc3occn3c2-c2ccnc(N[C@@H]3CN4CCC3CC4)n2)cc1 [LXXI] | 18

biological target: T6, MEK1 (Homo sapiens, UniProt Q02750); experiment: Broad selectivity panel, 32P incorporation; format: biochemical; details: 0.1 μM compound, 40 μM ATP; read-out: Percent inhibition MEK1
T6 construct: purchased Upstate (Charlottesville, Va.)
Experimental: as §1

T6 sequence (Q02750 whole entry, species assumed): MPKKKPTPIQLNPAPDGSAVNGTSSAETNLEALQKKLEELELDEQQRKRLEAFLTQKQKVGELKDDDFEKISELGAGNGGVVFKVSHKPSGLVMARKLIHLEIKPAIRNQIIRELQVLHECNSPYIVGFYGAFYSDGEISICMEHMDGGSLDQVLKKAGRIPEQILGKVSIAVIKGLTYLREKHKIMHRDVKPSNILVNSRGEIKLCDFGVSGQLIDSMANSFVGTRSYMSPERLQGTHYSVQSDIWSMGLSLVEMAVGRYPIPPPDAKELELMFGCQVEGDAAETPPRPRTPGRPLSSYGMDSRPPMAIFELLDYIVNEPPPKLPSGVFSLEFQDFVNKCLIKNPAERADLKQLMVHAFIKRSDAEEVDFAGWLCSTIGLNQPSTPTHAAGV

Row | SMILES | inhibition at 0.1 µM [%]
23 | CN(C)CC(C)(C)CNc1nccc(-c2c(-c3ccc(F)cc3)nc3occn23)n1 [CXIX] | -1
24 | Fc1ccc(-c2nc3occn3c2-c2ccnc(N[C@@H]3CN4CCC3CC4)n2)cc1 [LXXI] | 2

same assay, conditions: 1 μM compound, 40 μM ATP; read-out: Percent inhibition MEK1

Row | SMILES | inhibition at 1 µM [%]
25 | CN(C)CC(C)(C)CNc1nccc(-c2c(-c3ccc(F)cc3)nc3occn23)n1 [CXIX] | 2
26 | Fc1ccc(-c2nc3occn3c2-c2ccnc(N[C@@H]3CN4CCC3CC4)n2)cc1 [LXXI] | 6

biological target: T7, MKK6 (Homo sapiens, UniProt P52564); experiment: Broad selectivity panel, 32P incorporation; format: biochemical; details: 0.1 μM compound, 40 μM ATP; read-out: Percent inhibition MKK6
T7 construct: purchased Upstate (Charlottesville, Va.)
T7 sequence (P52564 1-334): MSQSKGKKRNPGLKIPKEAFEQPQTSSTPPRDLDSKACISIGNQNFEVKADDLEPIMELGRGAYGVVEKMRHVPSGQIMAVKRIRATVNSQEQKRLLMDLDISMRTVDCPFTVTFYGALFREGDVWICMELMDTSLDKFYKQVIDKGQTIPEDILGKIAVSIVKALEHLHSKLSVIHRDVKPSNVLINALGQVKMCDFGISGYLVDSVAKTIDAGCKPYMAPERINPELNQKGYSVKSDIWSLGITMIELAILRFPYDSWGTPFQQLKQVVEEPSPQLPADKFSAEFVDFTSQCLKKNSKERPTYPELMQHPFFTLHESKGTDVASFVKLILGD
Experimental: as §1

Row | SMILES | inhibition at 0.1 µM [%]
27 | CN(C)CC(C)(C)CNc1nccc(-c2c(-c3ccc(F)cc3)nc3occn23)n1 [CXIX] | 1
28 | Fc1ccc(-c2nc3occn3c2-c2ccnc(N[C@@H]3CN4CCC3CC4)n2)cc1 [LXXI] | -5

same assay, conditions: 1 μM compound, 40 μM ATP; read-out: Percent inhibition MKK6

Row | SMILES | inhibition at 1 µM [%]
29 | CN(C)CC(C)(C)CNc1nccc(-c2c(-c3ccc(F)cc3)nc3occn23)n1 [CXIX] | 75
30 | Fc1ccc(-c2nc3occn3c2-c2ccnc(N[C@@H]3CN4CCC3CC4)n2)cc1 [LXXI] | 80

biological target: T8, PDGFR α (Homo sapiens, UniProt P16234); experiment: Broad selectivity panel, 32P incorporation; format: biochemical; details: 0.1 μM compound, 40 μM ATP; read-out: Percent inhibition PDGFR α
T8 construct: purchased Upstate (Charlottesville, Va.)
Experimental: as §1

T8 sequence (P16234 24-1089, species assumed): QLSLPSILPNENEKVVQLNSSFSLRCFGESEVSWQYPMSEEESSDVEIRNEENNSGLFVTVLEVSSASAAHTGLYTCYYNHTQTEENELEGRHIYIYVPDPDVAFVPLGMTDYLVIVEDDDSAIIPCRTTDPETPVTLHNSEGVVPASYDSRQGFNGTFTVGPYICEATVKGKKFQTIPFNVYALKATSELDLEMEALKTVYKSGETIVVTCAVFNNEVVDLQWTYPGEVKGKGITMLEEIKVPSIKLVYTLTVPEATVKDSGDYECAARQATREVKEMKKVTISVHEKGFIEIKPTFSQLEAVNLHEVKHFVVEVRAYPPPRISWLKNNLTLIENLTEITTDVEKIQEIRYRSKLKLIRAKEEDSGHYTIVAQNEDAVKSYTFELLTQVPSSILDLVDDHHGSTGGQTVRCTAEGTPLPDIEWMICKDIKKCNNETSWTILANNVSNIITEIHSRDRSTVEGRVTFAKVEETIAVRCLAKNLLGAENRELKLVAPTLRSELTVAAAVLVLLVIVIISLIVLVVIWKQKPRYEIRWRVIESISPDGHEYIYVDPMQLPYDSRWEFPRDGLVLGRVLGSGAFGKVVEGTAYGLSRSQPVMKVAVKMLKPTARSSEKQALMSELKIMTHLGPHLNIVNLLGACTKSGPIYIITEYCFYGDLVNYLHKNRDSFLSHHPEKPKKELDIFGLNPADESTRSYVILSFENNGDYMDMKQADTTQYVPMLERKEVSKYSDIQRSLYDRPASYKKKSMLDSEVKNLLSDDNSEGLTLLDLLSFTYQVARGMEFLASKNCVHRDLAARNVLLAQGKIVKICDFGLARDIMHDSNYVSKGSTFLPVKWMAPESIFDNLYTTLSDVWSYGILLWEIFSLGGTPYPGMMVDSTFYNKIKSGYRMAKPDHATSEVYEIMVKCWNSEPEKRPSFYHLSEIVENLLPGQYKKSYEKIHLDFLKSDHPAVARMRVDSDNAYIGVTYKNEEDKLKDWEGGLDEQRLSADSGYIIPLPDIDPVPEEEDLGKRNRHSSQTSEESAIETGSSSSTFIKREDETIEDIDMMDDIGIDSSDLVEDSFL

Row | SMILES | inhibition at 0.1 µM [%]
31 | CN(C)CC(C)(C)CNc1nccc(-c2c(-c3ccc(F)cc3)nc3occn23)n1 [CXIX] | 26
32 | Fc1ccc(-c2nc3occn3c2-c2ccnc(N[C@@H]3CN4CCC3CC4)n2)cc1 [LXXI] | 10

same assay, conditions: 1 μM compound, 40 μM ATP; read-out: Percent inhibition PDGFR α

Row | SMILES | inhibition at 1 µM [%]
33 | CN(C)CC(C)(C)CNc1nccc(-c2c(-c3ccc(F)cc3)nc3occn23)n1 [CXIX] | 10
34 | Fc1ccc(-c2nc3occn3c2-c2ccnc(N[C@@H]3CN4CCC3CC4)n2)cc1 [LXXI] | 9

biological target: T9, PKA (Homo sapiens, UniProt P17612); experiment: Broad selectivity panel, 32P incorporation; format: biochemical; details: 0.1 μM compound, 40 μM ATP; read-out: Percent inhibition PKA
T9 construct: purchased Upstate (Charlottesville, Va.)
Experimental: as §1

Row | SMILES | inhibition at 0.1 µM [%]
35 | CN(C)CC(C)(C)CNc1nccc(-c2c(-c3ccc(F)cc3)nc3occn23)n1 [CXIX] | 1
36 | Fc1ccc(-c2nc3occn3c2-c2ccnc(N[C@@H]3CN4CCC3CC4)n2)cc1 [LXXI] | 16

same assay, conditions: 1 μM compound, 40 μM ATP; read-out: Percent inhibition PKA

Row | SMILES | inhibition at 1 µM [%]
37 | CN(C)CC(C)(C)CNc1nccc(-c2c(-c3ccc(F)cc3)nc3occn23)n1 [CXIX] | -8
38 | Fc1ccc(-c2nc3occn3c2-c2ccnc(N[C@@H]3CN4CCC3CC4)n2)cc1 [LXXI] | 11

biological target: T10, SAPK4 (Homo sapiens, UniProt O15264); experiment: Broad selectivity panel, 32P incorporation; format: biochemical; details: 0.1 μM compound, 40 μM ATP; read-out: Percent inhibition SAPK4
T10 construct: purchased Upstate (Charlottesville, Va.)
T10 sequence (O15264 1-365): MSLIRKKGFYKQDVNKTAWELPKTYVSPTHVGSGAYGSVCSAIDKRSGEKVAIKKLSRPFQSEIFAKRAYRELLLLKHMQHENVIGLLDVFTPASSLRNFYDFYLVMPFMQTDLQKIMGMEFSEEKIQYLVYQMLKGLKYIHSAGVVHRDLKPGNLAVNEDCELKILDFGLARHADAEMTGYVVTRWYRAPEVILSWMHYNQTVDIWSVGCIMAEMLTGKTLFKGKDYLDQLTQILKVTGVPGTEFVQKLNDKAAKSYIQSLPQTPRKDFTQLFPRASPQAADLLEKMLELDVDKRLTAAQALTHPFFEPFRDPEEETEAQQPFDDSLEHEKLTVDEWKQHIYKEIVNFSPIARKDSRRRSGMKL
Experimental: as §1

Row | SMILES | inhibition at 0.1 µM [%]
39 | CN(C)CC(C)(C)CNc1nccc(-c2c(-c3ccc(F)cc3)nc3occn23)n1 [CXIX] | 3
40 | Fc1ccc(-c2nc3occn3c2-c2ccnc(N[C@@H]3CN4CCC3CC4)n2)cc1 [LXXI] | -1

same assay, conditions: 1 μM compound, 40 μM ATP; read-out: Percent inhibition SAPK4

Row | SMILES | inhibition at 1 µM [%]
41 | CN(C)CC(C)(C)CNc1nccc(-c2c(-c3ccc(F)cc3)nc3occn23)n1 [CXIX] | -4
42 | Fc1ccc(-c2nc3occn3c2-c2ccnc(N[C@@H]3CN4CCC3CC4)n2)cc1 [LXXI] | 3
